This is an account of results in patent US20100022483A1, “Substituted Tetracycline Compounds” (Paratek Pharmaceuticals, Inc., priority 2008, published 2010).

≈ marks a conversion by molar mass, not a printed value. Read-outs that look alike come from different tables or passages of the source.

Data set [1] in a line: Mammalian cytotoxicity assay (resazurin), COS-1 cells. The class given is cell-based. To be noted: African green monkey, read-out: Cytotox. COS-1. As for the experimental part:
(§1) COS-1 and CHO-K1 cell suspensions were prepared, seeded into 96-well tissue culture treated black-walled microtiter plates (density determined by cell line), and incubated overnight at 37° C., in 5% CO2 and approximately 95% humidity. The following day, serial dilutions of compound were prepared under sterile conditions and transferred to cell plates. Cell/Compound plates were incubated under the above conditions for 24 hours. Following the incubation period, media/compound was aspirated and 50 μl of resazurin (0.042 mg/ml in PBS w/Ca and Mg) is added. The plates were then incubated under the above conditions for 2 hours and then placed in the dark at room temperature for an additional 30 minutes. Fluorescence measurements were taken (excitation 535 nm, emission 590 nm). The IC50 (concentration of compound causing 50% growth inhibition) was then calculated. Table 3 includes IC50 data for several substituted tetracycline compounds.

A short description of data set [2]: in vitro. It counts as cell-based. Conditions: Chinese hamster, Cytotox. CHO-K1. Here is the method:
as §1

In data set [3] the test system is 3T3 fibroblast cells. As to the kind of experiment: In vitro phototoxicity assay (neutral red; UV light-treated vs dark control plates). The class given is cell-based. Conditions: for Photo Toxicity UV Tox50: UV light 50 minutes; for Photo Toxicity Dark Tox50: dark control plate. Here is the method: 3T3 fibroblast cells were harvested and plated at a concentration of 1×10^5 cells/mL and the plates were incubated overnight at 37° C., in 5% CO2 and approximately 95% humidity. On the following day the medium was removed from the plates and replaced with Hanks' Balanced Salt Solution (HBSS). Compound dilutions were made in HBSS and added to the plates. For each compound tested, a duplicate plate was prepared that was not exposed to light as a control for compound toxicity. Plates were then incubated in a dark drawer (for controls), or under UV light (meter reading of 1.6-1.8 mW/cm^2) for 50 minutes. Cells were then washed with HBSS, fresh medium was added, and plates were incubated overnight as described above. The following day neutral red was added as an indicator of cell viability. The plates were then incubated for an additional 3 hours. Cells were then washed with HBSS and blotted on absorbent paper to remove excess liquid. A solution of 50% EtOH, 10% glacial acetic acid was added and after 20 minutes incubation the plate's absorbance at 535 nm was read using a Wallac Victor 5 spectrophotometer. The phototoxicity reflected the difference between the light-treated and control cultures. Table 3 includes phototoxicity (μM) data for several substituted tetracycline compounds.

In data set [4] the test system is gram positive bacteria. Briefly: In vitro anti-bacterial activity assay (broth dilution MIC), gram positive bacteria. The class given is cell-based, S. aureus. Conditions: 18 h. The source says: (§2) Bacterial infections may be caused by a wide variety of gram positive and gram negative bacteria. Some of the compounds of the invention are useful as antibiotics against organisms which are resistant and/or sensitive to other tetracycline compounds. The antibiotic activity of the tetracycline compounds of the invention may by using the in vitro standard broth dilution method described in Waitz, J. A., CLSI, Document M7-A2, vol. 10, no. 8, pp. 13-20, 2nd edition, Villanova, Pa. (1990).
(§3) The following assay was used to determine the efficacy of the tetracycline compounds against gram positive and gram negative bacteria. 2 mg of each compound was dissolved in 100 μl of DMSO. […] The tetracycline compound solutions were diluted to 50 μL volumes, with a test compound concentration of 0.098 μg/ml. Optical density (OD) determinations were made from fresh log-phase broth cultures of the test strains. Dilutions were made to achieve a final cell density of […] CFU/ml. At OD=1, cell densities for different genera were approximately:
(§4) 50 μl of the cell suspensions were added to each well of microtiter plates. The final cell density was approximately 5×10^5 CFU/ml. These plates were incubated at 35° C. in an ambient air incubator for approximately 18 hours. The plates were read with a microplate reader and were visually inspected when necessary. The MIC was defined as the lowest concentration of the tetracycline compound that inhibits growth. Table 3 includes MIC data for several substituted tetracycline compounds.
In general terms: Dilution methods test growth across graded concentrations, often in twofold steps.

Data set [5] deals with gram negative bacteria. As to the kind of experiment: In vitro anti-bacterial activity assay (broth dilution MIC), gram negative bacteria. It counts as cell-based, E. coli.
Description: as §2, §3, §4

Where [6] appears, read: Staphylococcus aureus, S. aureus MRSA5, read-out: Median MIC's G+ S. aureus MRSA5.
[7] abbreviates: Staphylococcus aureus, S. aureus RN450, read-out: Median MIC's G+ S. aureus RN450.
[8] abbreviates: Streptococcus pneumoniae, S. pneumoniae 157E-Strep, read-out: Median MIC's G+ S. pneumoniae 157E-Strep.
[9] abbreviates: Escherichia coli, 18 h, E. coli D1 209, read-out: Median MIC's G− E. coli D1 209.
The mark [10] stands for this setting: Escherichia coli, 18 h, E. coli MG 1655, read-out: Median MIC's G− E. coli MG 1655.
The mark [11] stands for this setting: Escherichia coli, ATCC25922, 18 h, E. coli ATCC 25922, read-out: Median MIC's G− E. coli ATCC 25922.
Where [12] appears, read: Pseudomonas aeruginosa, 18 h, P. aeruginosa K201 PAO6609, read-out: Median MIC's G− P. aeruginosa K201 PAO6609.

Broadly, the MIC is the lowest concentration that inhibits growth of the organism. On to `CN1CCN(CC(=O)c2ccc(O)c3c2C[C@H]2C[C@H]4[C@H](N(C)C)C(O)=C(C(N)=O)C(=O)[C@@]4(O)C(O)=C2C3=O)CC1` [BB], for which the IC50 at 24 h in data set [1] and in data set [2] was over 136 µM throughout. Besides, the “Photo Toxicity UV Tox50” value in data set [3] was over 135.54 µM. In addition, the “Photo Toxicity Dark Tox50” value in data set [3] is over 135.54 µM. In addition, the MIC worked out at 16 µg/mL (≈ 28.8 µM) in data set [4] (setting [6]); 2 µg/mL (≈ 3.61 µM) in data set [4] (setting [7]); 1 µg/mL (≈ 1.8 µM) in data set [4] (setting [8]); 64 µg/mL (≈ 115 µM) in data set [5] (setting [9]); 8 µg/mL (≈ 14.4 µM) in data set [5] (setting [10]); 32 µg/mL (≈ 57.7 µM) in data set [5] (setting [11]). For the same compound, the MIC in data set [5] (setting [12]) was 64 µg/mL (≈ 115 µM).

For `CN(C)CC(=O)Nc1ccc(-c2ccc(O)c3c2C[C@H]2C[C@H]4[C@H](N(C)C)C(O)=C(C(N)=O)C(=O)[C@@]4(O)C(O)=C2C3=O)cc1` [BC], the IC50 at 24 h in data set [1] and in data set [2] was over 13.6 µM each time. The “Photo Toxicity UV Tox50” value in data set [3] is over 135.63 µM. The “Photo Toxicity Dark Tox50” value in data set [3] was over 135.63 µM. In addition, the MIC in data set [4] (setting [6]) was determined as 2 µg/mL (≈ 3.39 µM); in data set [4] (setting [7]) it was 0.06 µg/mL (≈ 0.102 µM); in data set [4] (setting [8]), 0.06 µg/mL (≈ 0.102 µM); in data set [5] (setting [9]) it was 1 µg/mL (≈ 1.69 µM); in data set [5] (setting [10]), 2 µg/mL (≈ 3.39 µM); in data set [5] (setting [11]), 1 µg/mL (≈ 1.69 µM). The MIC in data set [5] (setting [12]) came out at 64 µg/mL (≈ 108 µM).

As to `CN(C)CCc1ccc(O)c2c1C[C@H]1C[C@H]3[C@H](N(C)C)C(O)=C(C(N)=O)C(=O)[C@@]3(O)C(O)=C1C2=O` [BD], the IC50 at 24 h in data set [1] and in data set [2] was over 121 µM each time. Also, in data set [3], the “Photo Toxicity UV Tox50” value is on record as “M: >120.91 uM”. In data set [3], the “Photo Toxicity Dark Tox50” value is given as “M: >120.91 uM”. In addition, the MIC in data set [4] (setting [6]) is 32 µg/mL (≈ 65.9 µM); in data set [4] (setting [7]), 0.5 µg/mL (≈ 1.03 µM); in data set [4] (setting [8]), 0.13 µg/mL (≈ 0.268 µM); in data set [5] (setting [9]), 64 µg/mL (≈ 132 µM); in data set [5] (setting [10]) it was 4 µg/mL (≈ 8.24 µM); in data set [5] (setting [11]), 4 µg/mL (≈ 8.24 µM). Moreover, in data set [5] (setting [12]), the MIC is 64 µg/mL (≈ 132 µM).

As to `COc1ccc(-c2ccc(O)c3c2C[C@H]2C[C@H]4[C@H](N(C)C)C(O)=C(C(N)=O)C(=O)[C@@]4(O)C(O)=C2C3=O)cc1CNCC(N)=O` [BE], the IC50 at 24 h in data set [1] and in data set [2] was over 10.8 µM each time. Moreover, in data set [3], the “Photo Toxicity UV Tox50” value is over 107.82 µM. Besides, in data set [3], the “Photo Toxicity Dark Tox50” value is over 107.82 µM. In addition, the MIC in data set [4] (setting [6]) stood at 32 µg/mL (≈ 52.8 µM); in data set [4] (setting [7]) it was 1 µg/mL (≈ 1.65 µM); in data set [4] (setting [8]), 0.13 µg/mL (≈ 0.214 µM); in data set [5] (setting [9]) it was 64 µg/mL (≈ 106 µM); in data set [5] (setting [10]), 16 µg/mL (≈ 26.4 µM); in data set [5] (setting [11]), 64 µg/mL (≈ 106 µM). The MIC in data set [5] (setting [12]) amounted to 64 µg/mL (≈ 106 µM).

For the compound `CN(C)[C@@H]1C(O)=C(C(N)=O)C(=O)[C@@]2(O)C(O)=C3C(=O)c4c(O)ccc(-c5coc(CN6CCCCC6)c5)c4C[C@H]3C[C@@H]12` [BF], the IC50 at 24 h in data set [1] and in data set [2] was over 42.9 µM each time. Also, the “Photo Toxicity UV Tox50” value in data set [3] was over 138.34 µM. Also, in data set [3], the “Photo Toxicity Dark Tox50” value was over 138.34 µM. The MIC in data set [4] (setting [6]) came out at 1 µg/mL (≈ 1.73 µM); in data set [4] (setting [7]), 0.06 µg/mL (≈ 0.104 µM); in data set [4] (setting [8]), 0.06 µg/mL (≈ 0.104 µM); in data set [5] (setting [9]), 0.5 µg/mL (≈ 0.866 µM); in data set [5] (setting [10]), 1 µg/mL (≈ 1.73 µM); in data set [5] (setting [11]), 0.25 µg/mL (≈ 0.433 µM). Moreover, the MIC in data set [5] (setting [12]) was determined as 64 µg/mL (≈ 111 µM).

Turning to `COCCNCc1ccc(-c2ccc(O)c3c2C[C@H]2C[C@H]4[C@H](N(C)C)C(O)=C(C(N)=O)C(=O)[C@@]4(O)C(O)=C2C3=O)cc1` [BG], the IC50 at 24 h in data set [1] is over 95.6 µM; in data set [2] it was 45.3 to 125 µM. The “Photo Toxicity UV Tox50” value in data set [3] was over 146.03 µM. Further, in data set [3], the “Photo Toxicity Dark Tox50” value was over 146.03 µM. The MIC was determined as 1 µg/mL (≈ 1.73 µM) in data set [4] (setting [6]); 0.06 µg/mL (≈ 0.104 µM) in data set [4] (setting [7]); 0.06 µg/mL (≈ 0.104 µM) in data set [4] (setting [8]); 0.5 µg/mL (≈ 0.866 µM) in data set [5] (setting [9]); 0.5 µg/mL (≈ 0.866 µM) in data set [5] (setting [10]); 0.25 µg/mL (≈ 0.433 µM) in data set [5] (setting [11]). Also, the MIC in data set [5] (setting [12]) amounted to 64 µg/mL (≈ 111 µM).
